26 compounds from patent EP4389749A1, “SUBSTITUTED 3,7-DIHYDRO-1H-PURINE-2,6-DIONES AND USE THEREOF” (invIOs GmbH, priority 2022, dated 2024) can be followed below.

The test system of experiment [1] is CD4+ T-cells. The experiment is described as follows: Immunostimulation assay with anti-CD3/28 stimulated T-cells, CD69 expression by flow cytometry. Type of experiment: cell-based, human. The following applies: T-cell; purified human CD4+ and CD8+ T-cells, 1 µg/ml anti-CD3, 1 µg/ml anti-CD28, 16 hours, surface FACS; read-out: EC50 CD4+. In a few lines:
(§1)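 Human CD4+/CD8+ T-cells purified from buffy-coat PBMCs were stimulated with 1 µg/ml anti-CD3 and 1 µg/ml anti-CD28 plus compound (0.001–30 µM) for 16 h at 37 °C. CD69 measured by flow cytometry; DMSO set minimal, CD3/28 Dynabeads maximal activation; EC50 by variable-slope fit.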
In general terms: In flow cytometry, cells or beads pass a laser one at a time.

The subject of experiment [2] is CD8+ T-cells. Described as above. Type of experiment: cell-based, human. The settings on record: T-cell; purified human CD4+ and CD8+ T-cells, 1 µg/ml anti-CD3, 1 µg/ml anti-CD28, 16 hours, surface FACS; read-out: EC50 CD8+. In a few lines: as §1

By EC50 is commonly meant the concentration that produces a half-maximal response. Take `CC(CO)Cn1c(=O)[nH]c(=O)c2c1nc(-c1ccc(Oc3ccc(Cl)cc3)c(Cl)c1)n2C` (stereo not shown) [Compound 150, 8-(3-chloro-4-(4-chlorophenoxy)phenyl)-3-(3-hydroxy-2-methylpropyl)-7-methyl-3,7-dihydro-1H-purine-2,6-dione]: the half-maximal effective concentration (EC50) in experiment [1] was in the range of 500 to 1000 nM; in experiment [2] it was 100 to 500 nM.

`CC(CO)Cn1c(=O)[nH]c(=O)c2c1nc(-c1ccc(Oc3ccc(OC(F)F)cc3)c(Cl)c1)n2C` (stereo not shown) [Compound 151, 8-(3-chloro-4-(4-(difluoromethoxy)phenoxy)phenyl)-3-(3-hydroxy-2-methylpropyl)-7-methyl-3,7-dihydro-1H-purine-2,6-dione]: the EC50 in experiment [1] and in experiment [2] was 100 to 500 nM each time.

Regarding `CC(CO)Cn1c(=O)[nH]c(=O)c2c1nc(-c1ccc(Oc3ccc(OC(F)(F)F)cc3)c(F)c1)n2C` (stereo not shown) [Compound 152, 8-(3-fluoro-4-(4-(trifluoromethoxy)phenoxy)phenyl)-3-(3-hydroxy-2-methylpropyl)-7-methyl-3,7-dihydro-1H-purine-2,6-dione], the EC50 in experiment [1] and in experiment [2] was 100 to 500 nM each time.

Take `Cn1c(-c2ccc(Oc3ccc(Cl)cc3)c(Cl)c2)nc2c1c(=O)[nH]c(=O)n2CC(O)C(F)(F)F` (stereo not shown) [Compound 153, 8-(3-chloro-4-(4-chlorophenoxy)phenyl)-7-methyl-3-(3,3,3-trifluoro-2-hydroxypropyl)-3,7-dihydro-1H-purine-2,6-dione]: the EC50 in experiment [1] and in experiment [2] was 100 to 500 nM in each case.

`CC(O)Cn1c(=O)[nH]c(=O)c2c1nc(-c1ccc(Oc3ccc(OC(F)(F)F)cc3)c(C(F)(F)F)c1)n2C` (stereo not shown) [Compound 155, 3-(2-hydroxypropyl)-7-methyl-8-(4-(4-(trifluoromethoxy)phenoxy)-3-(trifluoromethyl)phenyl)-3,7-dihydro-1H-purine-2,6-dione]: the EC50 in experiment [1] and in experiment [2] was 1000 to 5000 nM throughout.

`CC(O)Cn1c(=O)[nH]c(=O)c2c1nc(-c1ccc(Oc3ccc(OC(F)(F)F)cc3)c(OC(F)(F)F)c1)n2C` (stereo not shown) [Compound 156, 3-(2-hydroxypropyl)-7-methyl-8-(3-(trifluoromethoxy)-4-(4-(trifluoromethoxy)phenoxy)phenyl)-3,7-dihydro-1H-purine-2,6-dione]: the EC50 in experiment [1] and in experiment [2] was 100 to 500 nM throughout.

On to `Cn1c(-c2ccc(Oc3ccc(OC(F)(F)F)cc3F)cc2)nc2c1c(=O)[nH]c(=O)n2CC(O)C(F)(F)F` (stereo not shown) [Compound 161, 8-(4-(2-fluoro-4-(trifluoromethoxy)phenoxy)phenyl)-7-methyl-3-(3,3,3-trifluoro-2-hydroxypropyl)-3,7-dihydro-1H-purine-2,6-dione], for which the EC50 in experiment [1] and in experiment [2] was 100 to 500 nM in each case.

Turning to `Cn1c(-c2ccc(Oc3ccc(OC(F)F)cc3)c(Cl)c2)nc2c1c(=O)[nH]c(=O)n2CC(O)C(F)(F)F` (stereo not shown) [Compound 162, 8-(3-chloro-4-(4-(difluoromethoxy)phenoxy)phenyl)-7-methyl-3-(3,3,3-trifluoro-2-hydroxypropyl)-3,7-dihydro-1H-purine-2,6-dione], the EC50 in experiment [1] was 500 to 1000 nM; in experiment [2], greater than 5000 nM.

For the compound `Cn1c(-c2ccc(Oc3ccc(OC(F)(F)F)cc3F)c(Cl)c2)nc2c1c(=O)[nH]c(=O)n2CC(O)C(F)(F)F` (stereo not shown) [Compound 163, 8-(3-chloro-4-(2-fluoro-4-(trifluoromethoxy)phenoxy)phenyl)-7-methyl-3-(3,3,3-trifluoro-2-hydroxypropyl)-3,7-dihydro-1H-purine-2,6-dione], the EC50 in experiment [1] and in experiment [2] was 100 to 500 nM in each case.

For `Cn1c(-c2ccc(Oc3ccc(Cl)cc3)cc2)nc2c1c(=O)[nH]c(=O)n2CC(O)C(F)(F)F` (stereo not shown) [Compound 164, 8-(4-(4-chlorophenoxy)phenyl)-7-methyl-3-(3,3,3-trifluoro-2-hydroxypropyl)-3,7-dihydro-1H-purine-2,6-dione], the EC50 in experiment [1] and in experiment [2] was 100 to 500 nM each time.

Consider `Cn1c(-c2ccc(Oc3ccc(OC(F)F)cc3)cc2)nc2c1c(=O)[nH]c(=O)n2CC(O)C(F)(F)F` (stereo not shown) [Compound 165, 8-(4-(4-(difluoromethoxy)phenoxy)phenyl)-7-methyl-3-(3,3,3-trifluoro-2-hydroxypropyl)-3,7-dihydro-1H-purine-2,6-dione], for which the EC50 in experiment [1] and in experiment [2] was 1000 to 5000 nM in each case.

Consider `Cn1c(-c2ccc(Oc3ccc(OC(F)(F)F)c(Cl)c3)c(F)c2)nc2c1c(=O)[nH]c(=O)n2CC(O)C(F)(F)F` (stereo not shown) [Compound 166, 8-(4-(3-chloro-4-(trifluoromethoxy)phenoxy)-3-fluorophenyl)-7-methyl-3-(3,3,3-trifluoro-2-hydroxypropyl)-3,7-dihydro-1H-purine-2,6-dione], for which the EC50 in experiment [1] and in experiment [2] was 100 to 500 nM each time.

For `Cn1c(-c2ccc(Oc3ccc(OC(F)(F)F)cc3)c(F)c2)nc2c1c(=O)[nH]c(=O)n2CC(O)C(F)(F)F` (stereo not shown) [Compound 167, 8-(3-fluoro-4-(4-(trifluoromethoxy)phenoxy)phenyl)-7-methyl-3-(3,3,3-trifluoro-2-hydroxypropyl)-3,7-dihydro-1H-purine-2,6-dione], the EC50 in experiment [1] and in experiment [2] was 100 to 500 nM each time.

Regarding `CC(O)Cn1c(=O)[nH]c(=O)c2c1nc(-c1ccc(Oc3ccc(S(C)(=O)=O)cc3)cc1)n2C` (stereo not shown) [Compound 176, 3-(2-hydroxypropyl)-7-methyl-8-(4-(4-(methylsulfonyl)phenoxy)phenyl)-3,7-dihydro-1H-purine-2,6-dione], the EC50 in experiment [1] fell in the range of 1000 to 5000 nM; in experiment [2], 500 to 1000 nM.

Consider `CC(O)Cn1c(=O)[nH]c(=O)c2c1nc(-c1ccc(Oc3ccc(OC(F)F)cc3)c(Cl)c1)n2C` (stereo not shown) [Compound 178, 8-(3-chloro-4-(4-(difluoromethoxy)phenoxy)phenyl)-3-(2-hydroxypropyl)-7-methyl-3,7-dihydro-1H-purine-2,6-dione], for which the EC50 in experiment [1] and in experiment [2] was 500 to 1000 nM in each case.

In the case of `CC(O)Cn1c(=O)[nH]c(=O)c2c1nc(-c1ccc(Oc3ccc(OC(F)(F)F)cc3)c(Cl)c1)n2C` (stereo not shown) [Compound 179, 8-(3-chloro-4-(4-(trifluoromethoxy)phenoxy)phenyl)-3-(2-hydroxypropyl)-7-methyl-3,7-dihydro-1H-purine-2,6-dione], the EC50 in experiment [1] is greater than 5000 nM; in experiment [2], 500 to 1000 nM.

Regarding `CC(O)Cn1c(=O)[nH]c(=O)c2c1nc(-c1ccc(Oc3ccc(Cl)cc3)c(Cl)c1)n2C` (stereo not shown) [Compound 180, 8-(3-chloro-4-(4-chlorophenoxy)phenyl)-3-(2-hydroxypropyl)-7-methyl-3,7-dihydro-1H-purine-2,6-dione], the EC50 in experiment [1] was in the range of 1000 to 5000 nM; in experiment [2], 500 to 1000 nM.

On to `COc1cccc(Oc2ccc(-c3nc4c(c(=O)[nH]c(=O)n4CC(C)O)n3C)cc2)c1` (stereo not shown) [Compound 182, 3-(2-hydroxypropyl)-8-(4-(3-methoxyphenoxy)phenyl)-7-methyl-3,7-dihydro-1H-purine-2,6-dione], for which the EC50 in experiment [1] and in experiment [2] was 1000 to 5000 nM each time.

In the case of `CC(O)Cn1c(=O)[nH]c(=O)c2c1nc(-c1ccc(Oc3cccc(Cl)c3)cc1)n2C` (stereo not shown) [Compound 184, 8-(4-(3-chlorophenoxy)phenyl)-3-(2-hydroxypropyl)-7-methyl-3,7-dihydro-1H-purine-2,6-dione], the EC50 in experiment [1] and in experiment [2] was 1000 to 5000 nM each time.

In the case of `CC(O)Cn1c(=O)[nH]c(=O)c2c1nc(-c1ccc(Oc3ccc4ccccc4c3)cc1)n2C` (stereo not shown) [Compound 186, 3-(2-hydroxypropyl)-7-methyl-8-(4-(naphthalen-2-yloxy)phenyl)-3,7-dihydro-1H-purine-2,6-dione], the EC50 in experiment [1] and in experiment [2] was 100 to 500 nM each time.

As to `CC(O)Cn1c(=O)[nH]c(=O)c2c1nc(-c1ccc(Oc3cccc(C#N)c3)cc1)n2C` (stereo not shown) [Compound 187, 3-(4-(3-(2-hydroxypropyl)-7-methyl-2,6-dioxo-2,3,6,7-tetrahydro-1H-purin-8-yl)phenoxy)benzonitrile], the EC50 in experiment [1] and in experiment [2] was 1000 to 5000 nM in each case.

Take `CC(O)Cn1c(=O)[nH]c(=O)c2c1nc(-c1ccc(Oc3ccc(OC(F)(F)F)cc3)c(F)c1)n2C` (stereo not shown) [Compound 188, 8-(3-fluoro-4-(4-(trifluoromethoxy)phenoxy)phenyl)-3-(2-hydroxypropyl)-7-methyl-3,7-dihydro-1H-purine-2,6-dione]: the concentration giving a half-maximal response (EC50) in experiment [1] lay in the range of 100 to 500 nM; in experiment [2], 1000 to 5000 nM.

Take `CC(O)Cn1c(=O)[nH]c(=O)c2c1nc(-c1ccc(Oc3ccccc3OC(F)(F)F)cc1)n2C` (stereo not shown) [Compound 190, 3-(2-hydroxypropyl)-7-methyl-8-(4-(2-(trifluoromethoxy)phenoxy)phenyl)-3,7-dihydro-1H-purine-2,6-dione]: the EC50 in experiment [1] and in experiment [2] was greater than 5000 nM in each case.

In the case of `CC(O)Cn1c(=O)[nH]c(=O)c2c1nc(-c1ccc(Oc3cccc(OC(F)(F)F)c3)cc1)n2C` (stereo not shown) [Compound 191, 3-(2-hydroxypropyl)-7-methyl-8-(4-(3-(trifluoromethoxy)phenoxy)phenyl)-3,7-dihydro-1H-purine-2,6-dione], the EC50 in experiment [1] and in experiment [2] was 500 to 1000 nM throughout.

Turning to `CC(O)Cn1c(=O)[nH]c(=O)c2c1nc(-c1ccc(Oc3ccc(OC(F)(F)F)cc3Cl)cc1)n2C` (stereo not shown) [Compound 192, 8-(4-(2-chloro-4-(trifluoromethoxy)phenoxy)phenyl)-3-(2-hydroxypropyl)-7-methyl-3,7-dihydro-1H-purine-2,6-dione], the EC50 in experiment [1] and in experiment [2] was 1000 to 5000 nM each time.

Turning to `CC(O)Cn1c(=O)[nH]c(=O)c2c1nc(-c1ccc(Oc3ccc(OC(F)(F)F)cc3F)cc1)n2C` (stereo not shown) [Compound 193, 8-(4-(2-fluoro-4-(trifluoromethoxy)phenoxy)phenyl)-3-(2-hydroxypropyl)-7-methyl-3,7-dihydro-1H-purine-2,6-dione], the concentration for a half-maximal effect (EC50) in experiment [1] and in experiment [2] was 1000 to 5000 nM in each case.
